We go through three molecules from article PMC8651714 (Scientific Reports, 2021).

For test [1], the system named is human MAO-A (hMAO-A). The following applies: cited from earlier work.
Test [2] relates to human MAO-B (hMAO-B). The following applies: cited from earlier work.
Test [3] deals with T1, hMAO-A (Homo sapiens, UniProt P21397).
T1 construct: purchased Sigma Aldrich
T1 sequence (P21397 1-527): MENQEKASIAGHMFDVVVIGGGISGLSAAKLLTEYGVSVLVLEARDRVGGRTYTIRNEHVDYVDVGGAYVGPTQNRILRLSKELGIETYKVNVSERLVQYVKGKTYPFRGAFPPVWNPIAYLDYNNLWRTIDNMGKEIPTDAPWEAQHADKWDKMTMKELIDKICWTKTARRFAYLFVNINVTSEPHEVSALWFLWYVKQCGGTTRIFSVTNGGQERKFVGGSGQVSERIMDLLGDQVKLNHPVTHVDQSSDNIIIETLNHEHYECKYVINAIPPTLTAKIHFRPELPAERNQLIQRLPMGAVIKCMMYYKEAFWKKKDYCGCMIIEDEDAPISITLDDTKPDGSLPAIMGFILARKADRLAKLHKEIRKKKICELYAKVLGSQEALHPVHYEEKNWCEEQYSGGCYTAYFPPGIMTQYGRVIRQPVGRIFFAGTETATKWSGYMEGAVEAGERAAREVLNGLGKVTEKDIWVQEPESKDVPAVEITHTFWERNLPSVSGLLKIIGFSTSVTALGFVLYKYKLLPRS
In words: Recombinant hMAO-A inhibitory assay (luminescent) and enzyme kinetics. In kind it is biochemical.

In test [4] the target is T2, human dopamine D2L receptor (Homo sapiens, UniProt P14416).
T2 construct: host or cells: HEK-293
In words: Radioligand binding assay, [3H]methylspiperone, HEK-D2LR membranes. Conditions: duplicate.

Test [5] concerns the target T3, human dopamine D4 receptor (Homo sapiens, UniProt P21917).
T3 construct: host or cells: CHO
T3 sequence (P21917 1-419): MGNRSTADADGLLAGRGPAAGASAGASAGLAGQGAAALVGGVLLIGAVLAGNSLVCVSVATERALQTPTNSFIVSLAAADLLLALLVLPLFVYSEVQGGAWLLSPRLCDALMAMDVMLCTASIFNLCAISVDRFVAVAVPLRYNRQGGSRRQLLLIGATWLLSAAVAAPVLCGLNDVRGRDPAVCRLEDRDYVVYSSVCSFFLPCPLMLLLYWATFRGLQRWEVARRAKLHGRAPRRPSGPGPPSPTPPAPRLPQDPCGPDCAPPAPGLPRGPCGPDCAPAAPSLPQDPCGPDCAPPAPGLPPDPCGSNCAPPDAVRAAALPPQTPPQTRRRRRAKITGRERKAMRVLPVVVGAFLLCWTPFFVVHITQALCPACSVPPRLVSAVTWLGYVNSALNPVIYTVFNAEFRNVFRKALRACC
In words: Radioligand binding assay, [3H]methylspiperone, CHO-D4R membranes. The following applies: duplicate, read-out: % Inhibition of control-specific binding.

Test [6] concerns the target T4, human vasopressin V1A receptor (Homo sapiens, UniProt P37288). The following applies: agonist binding, [3H]AVP, 100 µM, duplicate.
Test [7] has as its target T5, human dopamine D3 receptor (Homo sapiens, UniProt P35462). Conditions: 100 µM.
Test [8] has as its system MAO from bovine serum. Set-up: method as in PMID 1913999. The following applies: read-out: Concentration for 50% inhibition of MAO activity; cited from earlier work.
Test [9] has as its system rat brain MAO-A. The following applies: cited from earlier work.
In test [10] the test system is rat brain MAO-B. The following applies: cited from earlier work.
The target in test [11] is human dopamine D1 receptor (Homo sapiens, UniProt P21728). In words: cell-based.
The target in test [12] is T5, human dopamine D3 receptor. As to the kind of experiment: cell-based.
In test [13] the target is T4, human vasopressin V1A receptor. In words: cell-based.
Test [14] addresses T6, hMAO-B (Homo sapiens, UniProt P27338).
T6 sequence (P27338 1-520): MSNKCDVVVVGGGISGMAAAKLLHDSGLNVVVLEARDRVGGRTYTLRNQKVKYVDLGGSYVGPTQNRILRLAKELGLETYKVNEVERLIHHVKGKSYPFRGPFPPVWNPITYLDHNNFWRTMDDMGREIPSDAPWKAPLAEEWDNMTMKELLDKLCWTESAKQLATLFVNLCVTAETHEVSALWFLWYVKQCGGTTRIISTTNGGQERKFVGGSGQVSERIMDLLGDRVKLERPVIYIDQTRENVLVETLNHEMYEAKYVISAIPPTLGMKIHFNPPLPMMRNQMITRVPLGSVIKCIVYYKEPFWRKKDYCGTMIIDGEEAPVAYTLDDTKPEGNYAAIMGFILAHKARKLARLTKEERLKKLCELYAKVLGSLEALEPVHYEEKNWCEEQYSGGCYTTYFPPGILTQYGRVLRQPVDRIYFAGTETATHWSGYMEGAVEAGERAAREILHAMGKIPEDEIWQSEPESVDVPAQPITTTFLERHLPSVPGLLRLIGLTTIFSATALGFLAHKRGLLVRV
In words: biochemical. Conditions: for Ki: inhibition constant from secondary plots.

Where [15] appears, read: ILG isolated from Colvillea racemosa.

Each structure is given as a SMILES string. Like-named read-outs stand apart in the source and are kept apart here.

For `O=C1C[C@@H](c2ccc(O)cc2)Oc2cc(O)ccc21` [LG, reference compound], the IC50 in [1] is 0.27 ± 0.04 µM; in test [2], 98 nM.
`COc1cc(O)ccc1C(=O)/C=C/c1ccc(O)cc1` [3-Deoxysappanchalcone, 2′-methoxy-4′,4″-dihydroxychalcone, reference compound]: the IC50 was 10.1 µM in test [1] and 680 nM in test [2].
One may read the Ki as the equilibrium dissociation constant of an inhibitor or competing ligand from its target. A word on the inhibition: it is the change of the read-out against control, counted positive when it falls. Usually EC50 stands for the midpoint of the concentration-response curve. Low readings indicate an effect from little substance, high ones a need for much substance. On to `O=C(/C=C/c1ccc(O)cc1)c1ccc(O)cc1O` [Isoliquiritigenin, 4,2′,4′-Trihydroxychalcone], for which the Ki in [3] (inhibition constant from secondary plots) was determined as 160 nM; in [14] (hMAO-B Kic), 94 nM; in test [14] (hMAO-B Kiu), 710 ± 10 nM. In addition, the IC50 in test [3] (recombinant hMAO-A, mean ± standard deviation of triplicate assays) was 680 ± 30 nM; in test [8], > 200 µM; in test [9] (ILG isolated from Sinofranchetia chinensis, rat brain, read-out: rMAO-A IC50) it was 13.9 µM; in [10] (ILG isolated from Sinofranchetia chinensis, rat brain, read-out: rMAO-B IC50) it was 47.2 µM; in test [1] (setting [15]) it was 22.7 ± 1.84 µM; in test [1] (earlier report), 41.5 µM. The IC50 was 510 ± 10 nM in test [2] (setting [15]), 21800 nM in test [2] (earlier report), 68.9 ± 0.2 µM in test [11] and 330 ± 20 nM in [14]. Moreover, the results for the “% Inhibition of control-specific binding” value in test [4] (100 µM) and in test [6] were “no binding affinity” and 60.8%, respectively. Besides, the inhibition at 100 µM amounted to 21.3% in test [4] (read-out: % Inhibition of control-specific binding) and 44.8% in [5]. Further, the “% Stimulation (percentage of control agonist response)” value in test [7] amounted to 92.7 ± 0.5%. Besides, the rMAO-A inhibition type entry in test [9] (previous study) was “non-competitive inhibition”. Further, the rMAO-B inhibition type entry in [10] (previous study) was “mixed inhibition”. For the same molecule, the concentration giving a half-maximal response (EC50) came out at 62.3 ± 0.2 µM in [12] and 78.6 ± 2.7 µM in [13].
